{"source": "ChEMBL document CHEMBL1201862", "about": "“PubChem BioAssay data set” (2004)", "experiment_in_all_cases": "inhibition of tumour cell growth, NCI panel, 48 h", "key": {"786-0": {"test_system": "786-0"}, "A498": {"test_system": "A498"}, "A549": {"test_system": "A549"}, "ACHN": {"test_system": "ACHN"}, "CCRF-CEM": {"test_system": "CCRF-CEM"}, "COLO 205": {"test_system": "COLO 205"}, "DMS-273": {"test_system": "DMS-273"}, "EKVX": {"test_system": "EKVX"}, "HCT-116": {"test_system": "HCT-116"}, "HCT-15": {"test_system": "HCT-15"}, "HOP-18": {"test_system": "HOP-18"}, "HOP-62": {"test_system": "HOP-62"}, "HOP-92": {"test_system": "HOP-92"}, "HT-29": {"test_system": "HT-29"}, "IGROV-1": {"test_system": "IGROV-1"}, "K562": {"test_system": "K562"}, "KM-20L2": {"test_system": "KM-20L2"}, "KM12": {"test_system": "KM12"}, "LOX IMVI": {"test_system": "LOX IMVI"}, "LXFL 529": {"test_system": "LXFL 529"}, "M14": {"test_system": "M14"}, "M19-MEL": {"test_system": "M19-MEL"}, "MOLT-4": {"test_system": "MOLT-4"}, "Malme-3M": {"test_system": "Malme-3M"}, "NCI-H226": {"test_system": "NCI-H226"}, "NCI-H23": {"test_system": "NCI-H23"}, "NCI-H460": {"test_system": "NCI-H460"}, "NCI-H522": {"test_system": "NCI-H522"}, "OVCAR-3": {"test_system": "OVCAR-3"}, "OVCAR-4": {"test_system": "OVCAR-4"}, "OVCAR-5": {"test_system": "OVCAR-5"}, "OVCAR-8": {"test_system": "OVCAR-8"}, "RPMI-8226": {"test_system": "RPMI-8226"}, "RXF 393": {"test_system": "RXF 393"}, "SF-268": {"test_system": "SF-268"}, "SF-295": {"test_system": "SF-295"}, "SF-539": {"test_system": "SF-539"}, "SK-MEL-28": {"test_system": "SK-MEL-28"}, "SK-MEL-2": {"test_system": "SK-MEL-2"}, "SK-MEL-5": {"test_system": "SK-MEL-5"}, "SK-OV-3": {"test_system": "SK-OV-3"}, "SN12C": {"test_system": "SN12C"}, "SNB-19": {"test_system": "SNB-19"}, "SNB-75": {"test_system": "SNB-75"}, "SNB-78": {"test_system": "SNB-78"}, "SW-620": {"test_system": "SW-620"}, "TK-10": {"test_system": "TK-10"}, "U-251": {"test_system": "U-251"}, "UACC-257": {"test_system": "UACC-257"}, "UACC-62": {"test_system": "UACC-62"}, "UO-31": {"test_system": "UO-31"}, "XF498": {"test_system": "XF498"}}, "note": "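1) Cells in 96-well plates. 2) Compound, 48 h, 5 concentrations. 3) Linear interpolation between surrounding doses. 4) Unreached endpoint = highest concentration. GI50 marks 50% less growth.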 The source made the active and inactive calls. Rule as the data show it: active = GI50 up to about 1.1 µM and inactive = higher.", "data": [{"compound": "COc1cc2ccc(C(=O)O)cc2cc1OC", "values": [{"measurement": "GI50", "setting": "786-0", "result": "> 100 µM (inactive)"}, {"measurement": "GI50", "setting": "A498", "result": "49.7 µM (inactive)"}, {"measurement": "GI50", "setting": "A549", "result": "> 100 µM (inactive)"}, {"measurement": "GI50", "setting": "ACHN", "result": "> 100 µM (inactive)"}, {"measurement": "GI50", "setting": "CCRF-CEM", "result": "> 100 µM (inactive)"}, {"measurement": "GI50", "setting": "COLO 205", "result": "> 100 µM (inactive)"}, {"measurement": "GI50", "setting": "DMS-273", "result": "> 100 µM (inactive)"}, {"measurement": "GI50", "setting": "EKVX", "result": "> 100 µM (inactive)"}, {"measurement": "GI50", "setting": "HCT-116", "result": "> 100 µM (inactive)"}, {"measurement": "GI50", "setting": "HCT-15", "result": "> 100", "unit": "µM"}, {"measurement": "GI50", "setting": "HOP-18", "result": "> 100 µM (inactive)"}, {"measurement": "GI50", "setting": "HOP-62", "result": "> 100 µM (inactive)"}, {"measurement": "GI50", "setting": "HOP-92", "result": "> 100 µM (inactive)"}, {"measurement": "GI50", "setting": "HT-29", "result": "> 100 µM (inactive)"}, {"measurement": "GI50", "setting": "IGROV-1", "result": "> 100 µM (inactive)"}, {"measurement": "GI50", "setting": "K562", "result": "> 100 µM (inactive)"}, {"measurement": "GI50", "setting": "KM-20L2", "result": "> 100 µM (inactive)"}, {"measurement": "GI50", "setting": "KM12", "result": "> 100 µM (inactive)"}, {"measurement": "GI50", "setting": "LOX IMVI", "result": "> 100 µM (inactive)"}, {"measurement": "GI50", "setting": "LXFL 529", "result": "> 100 µM (inactive)"}, {"measurement": "GI50", "setting": "M14", "result": "> 100 µM (inactive)"}, {"measurement": "GI50", "setting": "M19-MEL", "result": "> 100 µM (inactive)"}, {"measurement": "GI50", "setting": "MOLT-4", "result": "> 100 µM (inactive)"}, {"measurement": "GI50", "setting": "Malme-3M", "result": "> 100 µM (inactive)"}, {"measurement": "GI50", "setting": "NCI-H226", "result": "> 100 µM (inactive)"}, {"measurement": "GI50", "setting": "NCI-H23", "result": "> 100 µM (inactive)"}, {"measurement": "GI50", "setting": "NCI-H460", "result": "> 100 µM (inactive)"}, {"measurement": "GI50", "setting": "NCI-H522", "result": "> 100 µM (inactive)"}, {"measurement": "GI50", "setting": "OVCAR-3", "result": "> 100 µM (inactive)"}, {"measurement": "GI50", "setting": "OVCAR-4", "result": "> 100 µM (inactive)"}, {"measurement": "GI50", "setting": "OVCAR-5", "result": "> 100 µM (inactive)"}, {"measurement": "GI50", "setting": "OVCAR-8", "result": "> 100 µM (inactive)"}, {"measurement": "GI50", "setting": "RPMI-8226", "result": "> 100 µM (inactive)"}, {"measurement": "GI50", "setting": "RXF 393", "result": "> 100 µM (inactive)"}, {"measurement": "GI50", "setting": "SF-268", "result": "> 100 µM (inactive)"}, {"measurement": "GI50", "setting": "SF-295", "result": "> 100 µM (inactive)"}, {"measurement": "GI50", "setting": "SF-539", "result": "> 100 µM (inactive)"}, {"measurement": "GI50", "setting": "SK-MEL-28", "result": "> 100 µM (inactive)"}, {"measurement": "GI50", "setting": "SK-MEL-2", "result": "> 100 µM (inactive)"}, {"measurement": "GI50", "setting": "SK-MEL-5", "result": "> 100 µM (inactive)"}, {"measurement": "GI50", "setting": "SK-OV-3", "result": "> 100 µM (inactive)"}, {"measurement": "GI50", "setting": "SN12C", "result": "> 100 µM (inactive)"}, {"measurement": "GI50", "setting": "SNB-19", "result": "> 100 µM (inactive)"}, {"measurement": "GI50", "setting": "SNB-75", "result": "37.4 µM (inactive)"}, {"measurement": "GI50", "setting": "SNB-78", "result": "> 100 µM (inactive)"}, {"measurement": "GI50", "setting": "SW-620", "result": "> 100 µM (inactive)"}, {"measurement": "GI50", "setting": "TK-10", "result": "> 100 µM (inactive)"}, {"measurement": "GI50", "setting": "U-251", "result": "> 100 µM (inactive)"}, {"measurement": "GI50", "setting": "UACC-257", "result": "> 100 µM (inactive)"}, {"measurement": "GI50", "setting": "UACC-62", "result": "> 100 µM (inactive)"}, {"measurement": "GI50", "setting": "UO-31", "result": "> 100 µM (inactive)"}, {"measurement": "GI50", "setting": "XF498", "result": "> 100 µM (inactive)"}]}]}
